# Columns and labels:
# human recombinant HDAC1 = target: T1, human recombinant HDAC1 (Homo sapiens, UniProt Q13547); test: HDAC1 enzyme activity inhibition (HDAC1 Fluorimetric Drug Discovery Assay Kit, in vitro); type: biochemical; conditions: samples at 100, 1000 and 10000 nM
# T1 construct: purchased Enzolifesciences BML-SE456
# Method: (§1) A HDAC enzyme inhibitory capacity of a test material was measured by using HDAC1 Fluorimetric Drug Discovery Assay Kit (Enzolifesciences: BML-AK511) and HDAC6 human recombinant (Calbiochem: 382180). For a HDAC1 assay, samples were treated at a concentration of 100, 1000 and 10000 nM. For a HDAC6 assay, samples were treated at a concentration of 0.1, 1, 10, 100 and 1000 nM.
# (§2) For the test on the HDAC1 enzyme activity, human recombinant HDAC1 (BML-SE456) was used as a zymogen and Fluor de Lys®-SIRT1 (BNL-KI177) was used as a substrate. A 5-fold dilution of the compound was divided into a 96-well plate, after which 0.3 μg of the enzyme and […] of the substrate were inserted into each well and subjected to reaction at 37° C. for 60 minutes, such that Fluor de Lys® Developer II (BML-K1176) was inserted thereinto and subjected to reaction for 30 minutes and finished. After that, a fluorescence value (Ex 360, Em 460) was measured with a multi-plate reader (FlexStation 3, Molecular Device). An experiment on HDAC6 enzyme was conducted in accordance with the same protocol as in the HDAC1 enzyme activity test method by using human recombinant HDAC6 (382180) of Calbiochem Inc. For final result values, each IC50 value was calculated with GraphPad Prism 4.0 program.
# human recombinant HDAC6 = target: T2, human recombinant HDAC6 (Homo sapiens, UniProt Q9UBN7); test: HDAC6 enzyme activity inhibition (fluorimetric, in vitro); type: biochemical; conditions: samples at 0.1, 1, 10, 100 and 1000 nM
# T2 construct: purchased Calbiochem 382180
# T2 sequence (Q9UBN7 1-1215): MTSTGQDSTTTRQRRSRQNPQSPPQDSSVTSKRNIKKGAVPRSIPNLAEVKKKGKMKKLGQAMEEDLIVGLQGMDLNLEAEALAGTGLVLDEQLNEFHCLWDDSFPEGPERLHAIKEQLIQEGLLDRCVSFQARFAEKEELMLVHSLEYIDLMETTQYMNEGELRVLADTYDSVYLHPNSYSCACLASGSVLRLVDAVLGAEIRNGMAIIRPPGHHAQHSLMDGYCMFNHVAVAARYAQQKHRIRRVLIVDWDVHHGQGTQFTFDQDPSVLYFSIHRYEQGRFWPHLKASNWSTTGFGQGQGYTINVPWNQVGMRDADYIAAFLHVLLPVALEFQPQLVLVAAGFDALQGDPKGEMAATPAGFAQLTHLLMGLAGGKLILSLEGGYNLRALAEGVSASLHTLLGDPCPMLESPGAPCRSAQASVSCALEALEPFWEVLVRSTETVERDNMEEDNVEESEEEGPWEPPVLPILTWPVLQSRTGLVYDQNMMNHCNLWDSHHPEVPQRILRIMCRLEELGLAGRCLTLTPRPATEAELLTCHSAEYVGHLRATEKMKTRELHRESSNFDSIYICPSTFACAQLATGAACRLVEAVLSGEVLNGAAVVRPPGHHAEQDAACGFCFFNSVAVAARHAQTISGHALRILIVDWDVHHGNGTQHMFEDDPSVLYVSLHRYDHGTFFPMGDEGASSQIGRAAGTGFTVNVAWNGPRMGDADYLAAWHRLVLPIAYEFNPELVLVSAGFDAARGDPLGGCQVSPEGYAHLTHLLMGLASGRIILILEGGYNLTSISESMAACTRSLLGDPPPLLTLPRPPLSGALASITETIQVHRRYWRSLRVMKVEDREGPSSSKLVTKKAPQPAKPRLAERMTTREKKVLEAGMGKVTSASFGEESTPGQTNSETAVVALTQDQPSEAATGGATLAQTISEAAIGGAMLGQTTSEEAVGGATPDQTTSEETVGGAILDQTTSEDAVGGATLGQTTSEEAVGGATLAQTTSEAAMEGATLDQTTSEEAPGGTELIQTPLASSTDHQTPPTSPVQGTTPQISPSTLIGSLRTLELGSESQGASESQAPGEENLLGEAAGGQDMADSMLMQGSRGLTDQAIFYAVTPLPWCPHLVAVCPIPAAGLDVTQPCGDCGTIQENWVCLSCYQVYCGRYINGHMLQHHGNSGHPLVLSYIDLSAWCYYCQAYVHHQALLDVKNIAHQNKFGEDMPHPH
# Method: as §1, §2
# T1 sequence (Q13547 whole entry): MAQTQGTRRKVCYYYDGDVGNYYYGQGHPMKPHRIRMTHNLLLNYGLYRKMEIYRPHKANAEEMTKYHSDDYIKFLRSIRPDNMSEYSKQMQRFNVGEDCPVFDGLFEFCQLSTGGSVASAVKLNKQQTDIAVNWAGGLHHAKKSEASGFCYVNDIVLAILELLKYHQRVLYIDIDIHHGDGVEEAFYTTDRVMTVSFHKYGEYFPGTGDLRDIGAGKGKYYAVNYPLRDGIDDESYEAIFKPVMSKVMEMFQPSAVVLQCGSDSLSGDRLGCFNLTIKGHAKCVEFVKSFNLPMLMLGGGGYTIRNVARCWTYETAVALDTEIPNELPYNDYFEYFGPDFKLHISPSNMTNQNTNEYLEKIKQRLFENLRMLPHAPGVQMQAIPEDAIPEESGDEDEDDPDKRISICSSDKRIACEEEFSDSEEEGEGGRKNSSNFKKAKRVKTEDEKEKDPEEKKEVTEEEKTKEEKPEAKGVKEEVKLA
IC50 (human recombinant HDAC1) [nM],IC50 (human recombinant HDAC6) [nM],Structure (SMILES)
> 10000,52.2,"N=S1(=O)CCN(S(=O)(=O)N(Cc2ccc(-c3nnc(C(F)F)o3)cc2F)c2cccc(Cl)c2)CC1 [Compound 70, N-(3-chlorophenyl)-N-[[4-[5-(difluoromethyl)-1,3,4-oxadiazol-2-yl]-2-fluoro-phenyl]methyl]-1-imino-1-oxo-1,4-thiazinan-4-sulfonamide]"
> 10000,40.6,"CS(=O)(=O)N=S1(=O)CCN(C(=O)N(Cc2ccc(-c3nnc(C(F)F)o3)cn2)c2ccccc2)CC1 [Compound 53, N-((5-(5-(difluoromethyl)-1,3,4-oxadiazol-2-yl)pyridin-2-yl)methyl)-1-((methylsulfonyl)imino)-N-phenylthiomorpholin-4-carboxamide 1-oxide]"
> 10000,71.3,"N=S1(=O)CC(N2CC3(CN(C(=O)N(Cc4ccc(-c5nnc(C(F)F)o5)cc4F)c4ccccc4)C3)C2)C1 (stereo not shown) [Compound 83, N-[[4-[5-(difluoromethyl)-1,3,4-oxadiazol-2-yl]-2-fluoro-phenyl]methyl]-6-(1-imino-1-oxo-thiethan-3-yl)-N-phenyl-2,6-diazaspiro[3.3]heptan-2-carboxamide]"
> 10000,194,"N=S1(=O)CCC(C(=O)N(Cc2ccc(-c3nnc(C(F)F)o3)cc2F)c2ccccc2)CC1 (stereo not shown) [Compound 8, N-(4-(5-(difluoromethyl)-1,3,4-oxadiazol-2-yl)-2-fluorobenzyl)-1-imino-N-phenyltetrahydro-2H-thiopyran-4-carboxamide 1-oxide]"
> 10000,64.4,"N=S1(=O)CCN(C(=O)N(Cc2ccc(-c3nnc(C(F)F)o3)cc2F)c2ccc(-c3ccco3)cc2)CC1 [Compound 23, N-(4-(5-(difluoromethyl)-1,3,4-oxadiazol-2-yl)-2-fluorobenzyl)-N-(4-(furan-2-yl)phenyl)-1-iminothiomorpholin-4-carboxamide 1-oxide]"
> 10000,91.4,"O=C(N=S1(=O)CCN(C(=O)N(Cc2ccc(-c3nnc(C(F)F)o3)cn2)c2ccccc2)CC1)OCc1ccccc1 [Compound 5, Benzyl (4-(((5-(5-(difluoromethyl)-1,3,4-oxadiazol-2-yl)pyridin-2-yl)methyl)(phenyl)carbamoyl)-1-oxidothiomorpholin-1-ylidene)carbamate]"
> 10000,–,"N=S1(=O)CC(N2C[C@@H]3C[C@H]2CN3c2c(N(Cc3ncc(-c4nnc(C(F)F)o4)cc3F)c3ccccc3)c(=O)c2=O)C1 (stereo partly drawn) [Compound 88, 3-[N-[[5-[5-(difluoromethyl)-1.3.4-oxadiazol-2-yl]-3-fluoro-2-pyridyl]methyl]anilino]-4-[(1S,4S)-5-(1-imino-1-oxo-thiethan-3-yl)-2,5-diazabicyclo[2.2.1]heptan-2-yl]cyclobut-3-en-1,2-dione]"
> 10000,185,"N=S1(=O)CCN(C(=O)N(Cc2ccc(-c3nnc(C(F)F)o3)cc2F)c2cccc(-c3cccnc3)c2)CC1 [Compound 47, N-(4-(5-(difluoromethyl)-1,3,4-oxadiazol-2-yl)-2-fluorobenzyl)-1-imino-N-(3-(pyridin-3-yl)phenyl)thiomorpholin-4-carboxamide 1-oxide]"
> 10000,44,"N=S1(=O)CCN(C(=O)N(Cc2ccc(-c3nnc(C(F)F)o3)cc2F)c2cccc(F)c2)CC1 [Compound 13, N-(4-(5-(difluoromethyl)-1,3,4-oxadiazol-2-yl)-2-fluorobenzyl)-N-(3-fluorophenyl)-1-iminothiomorpholin-4-carboxamide 1-oxide]"
> 10000,34.1,"N=S1(=O)CC(N2C[C@@H]3C[C@H]2CN3c2c(N(Cc3ccc(-c4nnc(C(F)F)o4)cc3F)c3ccccc3)c(=O)c2=O)C1 (stereo partly drawn) [Compound 89, 3-[N-[[4-[5-(difluoromethyl)-1,3,4-oxadiazol-2-yl]-2-fluoro-phenyl]methyl]anilino]-4-[(1S,4S)-5-(1-imino-1-oxo-thiethan-3-yl)-2,5-diazabicyclo[2.2.1]heptan-2-yl]cyclobut-3-en-1,2-dione]"
> 10000,78.8,"COc1cccc(N(Cc2ccc(-c3nnc(C(F)F)o3)cn2)S(=O)(=O)N2CCS(=N)(=O)CC2)c1 [Compound 72, N-[[5-[5-(difluoromethyl)-1,3,4-oxadiazol-2-yl]-2-pyridyl]methyl]-1-imino-N-(3-methoxyphenyl)-1-oxo-1,4-thiazinan-4-sulfonamide]"
> 10000,69.9,"N=S1(=O)CCN(C(=O)N(Cc2ccc(-c3nnc(C(F)F)o3)cc2F)c2ccc(Cl)cc2Cl)CC1 [Compound 51, N-(2,4-dichlorophenyl)-N-(4-(5-(difluoromethyl)-1,3,4-oxadiazol-2-y1)-2-fluorobenzyl)-1-iminothiomorpholin-4-carboxamide 1-oxide]"
> 10000,67.2,"COC(=O)N=S1(=O)CCN(C(=O)N(Cc2ccc(-c3nnc(C(F)F)o3)cc2F)c2ccccc2)CC1 [Compound 38, Methyl (4-((4-(5-(difluoromethyl)-1,3,4-oxadiazol-2-yl)-2-fluorobenzyl)(phenyl)carbamoyl)-1-oxidothiomorpholin-1-ylidene)carbamate]"
> 10000,30.8,"N=S1(=O)CCN(S(=O)(=O)N(Cc2ccc(-c3nnc(C(F)F)o3)cn2)c2cccc(F)c2)CC1 [Compound 36, N-((5-(5-(difluoromethyl)-1,3,4-oxadiazol-2-yl)pyridin-2-yl)methyl)-N-(3-fluorophenyl)-1-iminothiomorpholin-4-sulfonamide 1-oxide]"
> 10000,51.3,"N=S1(=O)CCN(C(=O)N(Cc2ccc(-c3nnc(C(F)F)o3)cc2F)c2cc(F)ccc2F)CC1 [Compound 33, N-(4-(5-(difluoromethyl)-1,3,4-oxadiazol-2-y1)-2-fluorobenzyl)-N-(2,5-difluorophenyl)-1-iminothiomorpholin-4-carboxamide 1-oxide]"
> 10000,141,"COc1ccccc1N(Cc1ccc(-c2nnc(C(F)F)o2)cc1F)C(=O)N1CCS(=N)(=O)CC1 [Compound 25, N-(4-(5-(difluoromethyl)-1,3,4-oxadiazol-2-y1)-2-fluorobenzyl)-1-imino-N-(2-methoxyphenyl)thiomorpholin-4-carboxamide 1-oxide]"
> 10000,26.7,"N=S1(=O)CCN(c2c(N(Cc3ccc(-c4nnc(C(F)F)o4)cc3F)c3ccccc3)c(=O)c2=O)CC1 [Compound 60, 3-((4-(5-(difluoromethyl)-1,3,4-oxadiazol-2-yl)-2-fluorobenzyl)(phenyl)amino)-4-(1-imino-1-oxidothiomorpholino)cyclobut-3-en-1,2-dione]"
> 10000,1350,"CS(=N)(=O)c1ccc(N(Cc2ccc(-c3nnc(C(F)F)o3)cn2)C(=O)N2CCS(=N)(=O)CC2)cc1 (stereo not shown) [Compound 15, N-((5-(5-(difluoromethyl)-1,3,4-oxadiazol-2-yl)pyridin-2-yl)methyl)-1-imino-N-(4-(S-methylsulfonimidoyl)phenyl)thiomorpholin-4-carboxamide 1-oxide]"
> 10000,1010,"N=S1(=O)CCN(C(=O)N(Cc2ccccc2)Cc2ccc(-c3nnc(C(F)F)o3)cc2F)CC1 [Compound 24, N-benzyl-N-(4-(5-(difluoromethyl)-1,3,4-oxadiazol-2-y1)-2-fluorobenzyl)-1-iminothiomorpholin-4-carboxamide 1-oxide]"
